This note sets out measurements from a melting point compilation (Tetko et al.; mined from patent text by program, amines drawn as free bases though some values may be those of a salt).

Structures are written as SMILES.

The term melting point denotes the temperature, or range, at which the solid turns liquid. In the case of `CN1Cc2c(C=O)ncn2-c2cccc(Cl)c2C1=O`, the melting point fell in the range of 204 to 205 °C.
`Cn1ccc2ccc(OCc3ccccc3)cc21` came in with a melting point of 79 °C.
`CCc1noc(-c2cn(-c3ccc([N+](=O)[O-])cn3)cn2)n1` showed a melting point of 228 to 229 °C.
Take `Cc1oc(-c2ccc(F)cc2)nc1COc1cccc(Cn2oc(=O)[nH]c2=O)c1`: the melting point was 163 to 164 °C.
On to `CCOCCOc1ccc(-c2ccc3c(c2)C=C(C(=O)O)CCN3S(C)(=O)=O)cc1`, for which the melting point lay within 222 to 225 °C.
Compound `N#CC(c1ccccc1Cl)N1CCOCC1` (centres undefined) came in with a melting point of 40 to 42 °C.
`CC(C)(C)NS(=O)(=O)c1cc2c(s1)S(=O)(=O)NCC2=O`: the melting point is 170 to 172 °C.
Turning to `CCCc1c(C(=O)C(C)C)c2ccc(C(N)=O)cc2n1Cc1ccccc1[N+](=O)[O-]`, the melting point lay within 181 to 182 °C.
`N#Cc1cc(CBr)ccc1Cl` yielded a melting point of 55 to 58 °C.
Take `CC(C)(C)NC(=O)CC(Cc1cccc2ccccc12)C(=O)O` (centres undefined): the melting point lay in the range of 188 to 190 °C.
For `CCOC(=O)c1ncc2[nH]c3c([N+](=O)[O-])cc([N+](=O)[O-])cc3c2n1`, the melting point was 295 to 299 °C.
Then `CC(C)Nc1cccnc1N1CCN(C(=O)c2ccc(C(=O)NCCN3CCOCC3)cc2)CC1`, with 114 to 116 °C.
Then `Cc1ccccc1N1C(=O)CN2C(=O)CCC21` (centres undefined), with 138 to 139 °C; and `CCCCc1nn(-c2cc(NC(=O)CC)ccc2Cl)c(C#N)c1Cc1ccc(-c2ccccc2S(=O)(=O)NC(=O)OC(C)(C)C)cc1F`, with over 95 °C.
As to `COc1ccc(OCc2ccccc2)cc1CBr`, the melting point was in the range of 88 to 90 °C.
In the case of `COC(=O)c1ccc2cc(OC)ccc2c1O`, the melting point lay within 109 to 111 °C.
To `CCCCCCOC(=O)OC(C)OC1=C(C(=O)Nc2ccccn2)N(C)S(=O)(=O)c2ccccc21` (centres undefined) belongs 86 to 87 °C; to `CCN1CCc2ccc(OC)c(Nc3ncc(Cl)c(Nc4ccccc4S(=O)(=O)NC)n3)c2CC1`, 171 to 188 °C; to `COc1c(Cl)nc(-c2ccccc2)nc1Cl`, 78 to 80 °C.
Take `CCc1nc2c(C)cc(C)nc2n1Cc1ccc(NCC2CCNCC2)cc1`: the melting point was in the range of 165 to 168 °C.
For the compound `COc1cccc2c1C(N)=NS2(=O)=O`, the melting point came out at 270 °C.
The compound `COC(CCSCC=O)=NNS(=O)(=O)c1ccc(C)cc1` showed a melting point of 94 to 96 °C.
`NC(=O)c1c(N)n[nH]c1N1CCN(Cc2ccccc2)CC1` displayed a melting point of 234 to 236 °C.
To `Nc1ccc(Cn2ncc3ccccc32)cc1` belongs 110 to 111 °C; to `CCCC1(C)OC(=O)C(OC(C)C)=C1c1ccc(S(C)(=O)=O)cc1` (centres undefined), 95 to 96 °C; to `Cc1cc(N(C)C)c2c(N)c(C(N)=O)sc2n1`, 167 to 170 °C.
Take `Nc1cc(-c2nnc(SCc3cccc(F)c3)o2)ccn1`: the melting point was 175 to 176 °C.
`CON=C(c1ccccc1)c1ccc2c(c1)C(C)(C)CCN2CCOc1ccc(CC(OC(C)=O)C(=O)O)cc1` (centres undefined) yielded a melting point of 64 to 66 °C.
Then `COc1ccc(S(=O)(=O)N(CCC(C)C)CC(O)C(Cc2ccccc2)NC(=O)C(C)CS(C)(=O)=O)cc1` (centres undefined), with 125 to 129 °C; and `Clc1cc(Cl)cc(-c2nc(-c3ccccn3)no2)c1`, with 162 to 166 °C.
On to `O=C1Nc2ccc(Cl)cc2C2(c3ccccc3)OCCN12` (centres undefined), for which the melting point is 216 to 217 °C.
For the compound `CC1(C)Oc2ccc(C(N)=S)cc2C(Oc2ccnc(O)c2)C1(C)O` (centres undefined), the melting point fell in the range of 142 to 144 °C.
Consider `CC1Cc2cc3c(cc2C(c2ccc([N+](=O)[O-])cc2)=NN1C(=S)Cl)OCO3` (centres undefined), for which the melting point is 187 to 188 °C.
`C=Cc1cn(-c2c(Cl)cc(C(F)(F)F)cc2Cl)nc1C(F)(F)F`: the melting point was in the range of 95 to 98 °C.
As to `Clc1ncc(Br)c(NC2CCCC2)n1`, the melting point was 95 to 96 °C.
`Clc1cccc(Cl)c1N=C1NCCN1OCc1ccccc1`: the melting point fell in the range of 115 to 117 °C.
Regarding `Cc1c(F)c(F)cc(C(=O)O)c1Cl`, the melting point is 121 to 122 °C.
For `Cn1c(=O)ccc2cnc(NCCc3ccccn3)nc21`, the melting point lay in the range of 155 to 156 °C.
To `O=C(O)c1cn(C2CC2)c2c(F)c(N3CCC(n4cc(-c5ccccc5)nn4)C3)c(F)cc2c1=O` (centres undefined) belongs 241 °C.
As to `CCOC(=O)[C@H]1O[C@@H]1C(=O)N[C@H](COCC(=O)N(C)C)CC(C)C`, the melting point fell in the range of 64 to 65 °C.
`CNc1cc(Oc2ccc(NC(=O)Nc3ccc(Br)c(C(F)(F)F)c3)cc2)ncn1` returned a melting point of 161 to 164 °C.
For `CCCCCCCCCCCCCCCCCCN(C)S(=O)(=O)c1cc(C(=O)OC)c([N+](=O)[O-])c(C(=O)OC)c1`, the melting point was 70 to 72 °C.
Take `CCCCCCCNC(=O)Nc1ccc(OC)cc1C(=O)NCC1CCN(C(c2ccccc2)c2ccccc2)CC1`: the melting point lay in the range of 189 to 191 °C.
For `CC(C)(C)n1ncc(C(=O)O)c1Cl`, the melting point lay within 132 to 134 °C.
Take `CCCCCCCCCCCCCCCCCCOc1cccc(C(=O)C(=O)O)c1`: the melting point fell in the range of 77 to 79 °C.
The compound `CCOC(=O)c1cn(C(C)(C)C)c2nc(N3CC4CCC(C3)N4C(=O)C(F)(F)F)c(F)cc2c1=O` gave a melting point of 205 °C.
In turn, `Cc1cccc(Nc2ccccc2C=O)c1C` had a melting point of 45 to 47 °C.
In the case of `COCCc1nc2c(N)nc3ccc(OCc4ccccc4)cc3c2n1C`, the melting point fell in the range of 192 to 194 °C.
For `CCOP(=O)(Cc1cc(=O)[nH]c2cc(I)ccc12)OCC`, the melting point lay within 196 to 198 °C.
`CN1CCC(N(C)c2ncc3ncnc(Nc4cccc([N+](=O)[O-])c4)c3n2)CC1`: the melting point lay within 199 to 203 °C.
Compound `O=c1[nH]c2ccc(S(=O)CCN3CCC(Cc4ccc(Cl)c(Cl)c4)CC3)cc2o1` (centres undefined) yielded a melting point of 189 to 191 °C.
On to `CCOC(=O)CCCSc1nccc(NC(=S)NCC(F)(F)F)n1`, for which the melting point was 104 to 106 °C.
Compound `CCC(=O)CCC1(C(N)=O)c2ccccc2-c2ccccc21` returned a melting point of 133 to 135 °C.
As to `CCOC(=O)c1cc(-n2c(=O)[nH]c3c(c2=O)CCCC3)ccc1Cl`, the melting point lay within 196 to 198 °C.
On to `CCCCCCC(=O)N(CCCCn1ccnc1)C1=Nc2cccc3cccc1c23`, for which the melting point fell in the range of 82 to 84 °C.
Take `CCCc1nc(C)n2nc(S(=O)(=O)Cl)nc2c1Cc1ccc(-c2ccccc2C#N)cc1`: the melting point turned out to be 141 °C.
In turn, `O=C(NCCO)c1cccc(-c2cccc3nc(Oc4cccc(C(F)(F)F)c4)sc23)c1` gave a melting point of 103 to 104 °C.
Turning to `CCCCn1cc(CCN(C)C)c2c(OCc3ccccc3)cc(F)cc21`, the melting point lay in the range of 86 to 89 °C.
To `CCCn1c(=O)c2c(nc(/C=C/c3ccccc3)n2C)n(CCC)c1=O` belongs 163 °C.
In turn, `CCOC(=O)C1CCN(C(=O)OC)CC1=O` (centres undefined) came in with a melting point of 36 to 38 °C.
Compound `O=c1c2ccccc2sc2cc(F)ccc12` showed a melting point of 168 °C.
`CCOC(=O)Cc1csc(-c2cccc(Br)c2)n1` returned a melting point of 65 to 70 °C.
`COC(=O)C1(CCCCCCCCCCCCC2(C(=O)NC3CC3)CC2)CC1` returned a melting point of 50.6 to 53 °C.
Take `O=c1oc2ccccc2c(O)c1C1CC(c2ccc(Oc3ccc(-c4ccc(Cl)cc4)cc3)cc2)Cc2ccccc21` (centres undefined): the melting point is 132 °C.
Compound `CCCC12CCC(=O)C=C1c1c(cc(OCC(=O)O)c(Cl)c1Cl)C2O` (centres undefined) yielded a melting point of 206 to 208 °C.
Then `O=S(=O)(Cl)c1ccc(SSc2ccc(S(=O)(=O)Cl)cc2)cc1`, with 139 °C.
Then `CN1CC(CCn2cccn2)Oc2ncccc2C1=O` (centres undefined), with 132 to 134 °C; and `CN1C(=O)CC[C@]2(C)c3ccc(Sc4nc5c(Br)cccc5s4)cc3CC[C@@H]12`, with 206 to 210 °C; and `CC(C)c1ccc(-c2ncc(-c3cccc(C(=O)O)c3)o2)cc1`, with 193 to 195 °C.
In turn, `Cc1cc(Cn2c(O)nc3c(N)nc(C)c(C)c32)on1` displayed a melting point of over 300 °C.
Then `CN1C(=O)CN(C(=O)CCl)C(c2ccccc2)c2cc(Cl)ccc21` (centres undefined), with 197 to 200 °C; and `Oc1ccc(-c2cnc(-c3ccccc3)[nH]c2=S)cc1O`, with 220 °C.
Compound `O=C(c1nc(-c2ccccc2)nc2ccccc12)N1CCCC1` came in with a melting point of 153 °C.
Then `CNC(=O)N1CCC(C(c2ccc(F)cc2)N(Cc2ccc(F)cc2)C(=O)NC)CC1` (centres undefined), with 120 to 162 °C.
`Nc1cccc(Oc2ccc(C(=O)c3ccc(C#Cc4ccccc4)cc3)cc2)c1` returned a melting point of 137 to 139 °C.
In turn, `CCOP(=O)(OCC)C(Sc1cc(Br)ccc1O)=P(OCC)(OCC)OCC` registered a melting point of 118 to 120 °C.
`O=C1CN2CCC1(Cc1ccccc1)CC2` had a melting point of 111 °C.
Consider `CS(=O)(=O)Nc1cc2c(cc1Oc1ccccc1)C(=O)C(Sc1ccccc1)(Sc1ccccc1)C2`, for which the melting point is 162 °C.
On to `Cn1c(COc2cccc(C(=O)O)c2)nc2ccc(Oc3cccnc3)cc21`, for which the melting point lay in the range of 240 to 245 °C.
The compound `COC(=O)Nc1cc(F)c(Br)cc1I` yielded a melting point of 101 to 102 °C.
The compound `Cc1cc(F)ccc1-c1ccc(S(=O)(=O)N2c3ccccc3CC2C(=O)NCCOc2ccc(C(=O)O)cc2)cc1` (centres undefined) returned a melting point of 96 °C.
The compound `O=c1cc(-c2ccc([N+](=O)[O-])cc2)c2c(O)cc(O)cc2o1` displayed a melting point of 268 to 270 °C.
Then `O=[N+]([O-])c1cc(F)c(N2CCC3(CC2)CO3)c(F)c1`, with 96 to 97 °C; and `Cc1c(C(=O)Nc2ccc(N3CCC(O)CC3)c(C#N)c2)cnn1-c1ccc(F)cc1`, with 215 to 216 °C.
Turning to `CC(C)(O)P(=O)(Oc1ccccc1)Oc1ccccc1`, the melting point fell in the range of 70 to 72 °C.
Compound `O=C1NCSc2ccsc21` registered a melting point of 136 to 138 °C.
To `CNS(=O)(=O)c1cc(-c2ccc(C(F)(F)F)n(C)c2=O)c(F)cc1Cl` belongs 150 to 151 °C.
The compound `Cc1cccc(C)c1N(CC(C)O)S(C)(=O)=O` (centres undefined) displayed a melting point of 81 to 84 °C.
`C=C1c2ccccc2CC12CCC(N1CCCCC1)CC2` (centres undefined): the melting point was in the range of 93 to 95 °C.
